US20080015225A1, “Dimeric Piperidine Derivatives” (JANSSEN PHARMACEUTICA N.V., priority 2004, published 2008)

System: chicken dorsal root ganglion (DRG) neurons
Assay: Neuronal viability assay (calcein-AM) in primary culture of chicken dorsal root ganglion neurons
Format: cell-based, chicken (White Leghorn chick embryos)
Details: Gallus gallus, DRG neuron, 48 h; survival of chick embryonic day 10 DRG neurons after two days of incubation; calcein-AM fluorescence; 0% = no neurotrophic factor, 100% = 10 ng/ml NGF; pIC50 from dose response curves; read-out: [C1] DRG assay SCORE
Excerpt: This assay is based on a fluorimetric Calcein-AM measurement and addresses the functional response of neurons as a quantitative measure of survival.
Primary Culture of Chicken Dorsal Root Ganglion Neurons
Dorsal root ganglia were dissected from White Leghorn chick embryos at embryonic day 10 as described previously (Skaper S. D. and Varon S. (1986) Brain Research 389, 39-46). The ganglia were trypsinised and dissociated by mild trituration in a HBSS buffer supplemented with 0.6% glucose and 0.08% trypsin. To remove non-neuronal lo cells by differential attachment to culture plastic, the ganglionic cell suspension was diluted to 2.5×10^5 cells/ml and seeded on tissue culture plastic dishes at 10 ml per 100 mm dish. After 2 h preplating, unattached neurons were collected and resuspended into Basal Eagle Medium containing 10% FCS. To remove cell aggregates, the cell suspension was passed through a nylon mesh (50 μM) pore diameter. Neuron-enriched cell suspension was plated at 5×10^4 cells/ml into poly-L-ornithine (100 μg/ml) and laminine (1 μg/ml) coated multiwell 96 plates. Compounds were dissolved in dimethyl sulfoxide and kept as a stock at −20° C. NGF and compounds were diluted in the culture medium and added to the cells immediately after plating. The final concentration of dimethyl sulfoxide in the test medium was 0.1%. After two days of incubation, neuronal viability was assessed with calcein-AM.
Neuronal Viability Assay Using Calcein-AM
Neuronal viability assay using calcein AM was performed as previously described (Bozyczko-Coyne D., McKenna B. W., Connors T. J., and Neff N. T. (1993) Journal of Neuroscience Methods 50, 205-216). For the assay, calcein-AM was diluted in PBS to the final concentration (1 μM). For each experiment an aliquot of calcein-AM (1 mg/ml in DMSO stored at −20° C.) was thawed immediately before use. The medium was removed from the wells and replaced with the calcein-AM solution. Assay plates were incubated for 1 h at 37° C. in a humidified CO2 incubator. Following the incubation, reading was done in a Cytofluor II at an excitation wavelength of 485 nm and an emission wavelength of 530 nm. Each plate had control wells with no neurotrophic factor added (0% survival) and wells with 10 ng/ml NGF (100% survival).
The drugs to be tested were taken from a stock solution and tested at a final concentration ranging from […] to 3.10^−9M. From the thus obtained dose response curves, the pIC50 value was calculated and scored as follows; Score 1=pIC50 value <6, Score 2=pIC50 value in the range of 6 to 8, Score 3 =pIC50 value>8. (in this table NT stands for Not Tested).

Structure (SMILES)	IC50 [nM]
O=C(CCCCC(=O)N1CCC(OCc2cccc(C(F)(F)F)c2)CC1)N1CCC(OCc2cccc(C(F)(F)F)c2)CC1 [Compound 10]	10 to 1000
O=C(c1ccc(Cl)cc1)C1CCN(C(=O)CCCCCCCC(=O)N2CCC(C(=O)c3ccc(Cl)cc3)CC2)CC1 [Compound 23]	10 to 1000
OC1(c2ccc(Cl)cc2)CCN(CC#CCN2CCC(O)(c3ccc(Cl)cc3)CC2)CC1 [Compound 26]	< 10
O=C(c1cccc(C(=O)N2CCC(O)(c3ccc(Cl)c(Cl)c3)CC2)c1)N1CCC(O)(c2ccc(Cl)c(Cl)c2)CC1 [Compound 43]	> 1000
O=S(=O)(c1ccc(Cc2ccc(S(=O)(=O)N3CCC(O)(c4ccc(Cl)c(Cl)c4)CC3)cc2)cc1)N1CCC(O)(c2ccc(Cl)c(Cl)c2)CC1 [Compound 13]	> 1000
O=C(CCCCCCC(=O)N1CCC(Oc2nc3ccccc3s2)CC1)N1CCC(Oc2nc3ccccc3s2)CC1 [Compound 11]	10 to 1000
COc1cc2nc(NCC3CCN(C(=O)NCCCCCCNC(=O)N4CCC(CNc5nc6cc(OC)c(OC)cc6s5)CC4)CC3)sc2cc1OC [Compound 27]	10 to 1000
OC(CN1CCC(O)(c2ccc(Cl)cc2)CC1)CN1CCC(O)(c2ccc(Cl)cc2)CC1 [Compound 19]	10 to 1000
OC(CN1CCC(O)(c2cccc(C(F)(F)F)c2)C(O)C1)CN1CCC(O)(c2cccc(C(F)(F)F)c2)C(O)C1 (stereo not drawn) [Compound 18]	10 to 1000
O=C(CCCCCCCC(=O)N1CCC(c2noc3cc(F)ccc23)CC1)N1CCC(c2noc3cc(F)ccc23)CC1 [Compound 42]	10 to 1000
O=C(CCCCCCCC(=O)N1CCC(O)(c2ccc(Cl)c(Cl)c2)CC1)N1CCC(O)(c2ccc(Cl)c(Cl)c2)CC1 [Compound 22]	> 1000
O=C(NCCCCCCNC(=O)N1CCC(c2noc3cc(F)ccc23)CC1)N1CCC(c2noc3cc(F)ccc23)CC1 [Compound 30]	10 to 1000
O=C(c1ccc(F)cc1)C1CCN(C(=O)CCCCCCCC(=O)N2CCC(C(=O)c3ccc(F)cc3)CC2)CC1 [Compound 45]	> 1000
O=C(CCCCCCC(=O)N1CCC(OCc2cccc(C(F)(F)F)c2)CC1)N1CCC(OCc2cccc(C(F)(F)F)c2)CC1 [Compound 12]	10 to 1000
O=S(=O)(c1ccc(Oc2ccc(S(=O)(=O)N3CCC(O)(c4cccc(Cl)c4)CC3)cc2)cc1)N1CCC(O)(c2cccc(Cl)c2)CC1 [Compound 15]	10 to 1000
O=C(CCCCCCCC(=O)N1CCC(O)(c2ccc(Cl)c(C(F)(F)F)c2)CC1)N1CCC(O)(c2ccc(Cl)c(C(F)(F)F)c2)CC1 [Compound 20]	10 to 1000
O=C(c1ccc(Cl)cc1)C1CCN(C(=O)CCCCC(=O)N2CCC(C(=O)c3ccc(Cl)cc3)CC2)CC1 [Compound 24]	10 to 1000
O=S(=O)(c1ccc(Oc2ccc(S(=O)(=O)N3CCC(O)(c4ccc(Cl)c(Cl)c4)CC3)cc2)cc1)N1CCC(O)(c2ccc(Cl)c(Cl)c2)CC1 [Compound 14]	10 to 1000
C(#CCN1CCC(c2c[nH]c3ccccc23)CC1)CN1CCC(c2c[nH]c3ccccc23)CC1 [Compound 17]	10 to 1000
OC1(c2ccc(Cl)c(Cl)c2)CCN(CC#CCN2CCC(O)(c3ccc(Cl)c(Cl)c3)CC2)CC1 [Compound 47]	10 to 1000
O=C(Nc1ccc(NC(=O)N2CCC(O)(c3cccc(C(F)(F)F)c3)CC2)cc1)N1CCC(O)(c2cccc(C(F)(F)F)c2)CC1 [Compound 33]	10 to 1000

Structure (SMILES)	IC50 [nM]
O=S(=O)(c1ccc(Oc2ccc(S(=O)(=O)N3CCC(O)(c4ccc(Br)cc4)CC3)cc2)cc1)N1CCC(O)(c2ccc(Br)cc2)CC1 [Compound 6]	> 1000
O=C(c1cccc(C(=O)N2CCC(O)(c3ccc(Cl)c(C(F)(F)F)c3)CC2)c1)N1CCC(O)(c2ccc(Cl)c(C(F)(F)F)c2)CC1 [Compound 21]	10 to 1000
O=C(NCCCCCCNC(=O)N1CCC(Cc2c[nH]c3ccccc23)CC1)N1CCC(Cc2c[nH]c3ccccc23)CC1 [Compound 29]	10 to 1000
CC(C)(C)Cc1nc(C2CCN(C(=O)CCCCCC(=O)N3CCC(c4noc(CC(C)(C)C)n4)CC3)CC2)no1 [Compound 4]	> 1000
O=S(=O)(c1ccc(Oc2ccc(S(=O)(=O)N3CCC(O)(c4ccc(Cl)cc4)CC3)cc2)cc1)N1CCC(O)(c2ccc(Cl)cc2)CC1 [Compound 16]	10 to 1000
O=C(c1cccc(C(F)(F)F)c1)C1CCN(C(=O)NCCCCNC(=O)N2CCC(C(=O)c3cccc(C(F)(F)F)c3)CC2)CC1 [Compound 38]	10 to 1000
O=C(NCCCCCCNC(=O)N1CCC(Cc2nc3ccccc3s2)CC1)N1CCC(Cc2nc3ccccc3s2)CC1 [Compound 36]	10 to 1000
O=C(Nc1ccc(NC(=O)N2CCC(O)(c3ccc(Cl)c(C(F)(F)F)c3)CC2)cc1)N1CCC(O)(c2ccc(Cl)c(C(F)(F)F)c2)CC1 [Compound 34]	10 to 1000
Fc1ccc2c(C3CCN(CC#CCN4CCC(c5noc6cc(F)ccc56)CC4)CC3)noc2c1 [Compound 40]	10 to 1000
O=S(=O)(c1ccc(Cc2ccc(S(=O)(=O)N3CCC(O)(c4cccnc4)CC3)cc2)cc1)N1CCC(O)(c2cccnc2)CC1 [Compound 5]	10 to 1000
O=C(CCCCC(=O)N1CCC(O)(c2ccc(Cl)c(C(F)(F)F)c2)CC1)N1CCC(O)(c2ccc(Cl)c(C(F)(F)F)c2)CC1 [Compound 25]	> 1000
c1ccc2c(c1)CCN2C1CCN(CCCCCCCCCCCCN2CCC(N3CCc4ccccc43)CC2)CC1 [Compound 2]	10 to 1000
O=C(CCCCCCCC(=O)N1CCC(O)(c2cccc(Cl)c2)CC1)N1CCC(O)(c2cccc(Cl)c2)CC1 [Compound 7]	> 1000
COc1ccc(-c2noc(C3CCN(C(=O)c4ccc(-c5ccc(C(=O)N6CCC(c7nc(-c8ccc(OC)c(OC9CCCC9)c8)no7)CC6)cc5)cc4)CC3)n2)cc1OC1CCCC1 [Compound 41]	10 to 1000
O=C(c1ccc(F)cc1)C1CCN(CC#CCN2CCC(C(=O)c3ccc(F)cc3)CC2)CC1 [Compound 1]	< 10
O=C(NCCCCCCNC(=O)N1CCC(O)(c2ccc(Cl)cc2)CC1)N1CCC(O)(c2ccc(Cl)cc2)CC1 [Compound 28]	10 to 1000
O=C(c1cccc(C(=O)N2CCC(O)(c3cccc(C(F)(F)F)c3)CC2)c1)N1CCC(O)(c2cccc(C(F)(F)F)c2)CC1 [Compound 44]	> 1000
O=C(Nc1ccc(Cc2ccc(NC(=O)N3CCC(O)(c4ccc(F)cc4)CC3)cc2)cc1)N1CCC(O)(c2ccc(F)cc2)CC1 [Compound 32]	> 1000
c1ccc2c(CC3CCN(CCCN4CCC(Cc5c[nH]c6ccccc56)CC4)CC3)c[nH]c2c1 [Compound 39]	10 to 1000
O=C(NCCCCCCNC(=O)N1CCC(O)(c2ccc(Cl)c(C(F)(F)F)c2)CC1)N1CCC(O)(c2ccc(Cl)c(C(F)(F)F)c2)CC1 [Compound 48]	10 to 1000
O=C(NCCCCCCNC(=O)N1CCC(O)(c2cccc(C(F)(F)F)c2)C(O)C1)N1CCC(O)(c2cccc(C(F)(F)F)c2)C(O)C1 (stereo not drawn) [Compound 3]	10 to 1000
